Reference: ChEMBL document CHEMBL1152732, “Pharmacodynamics and pharmacokinetics studies of phenoxazinium derivatives for antimalarial agent” (Bioorg Med Chem, 2009)
Activity calls are given as the source filed them. No cut-off for these calls is given here.

Experiments:
[1] = tested on: Plasmodium berghei; test: Antimalarial activity as reduced parasitaemia at day 4 against Plasmodium berghei NK65 infected ICR mice (Mus musculus) at 100 mg/kg/day peroral dose for 3 days; format: functional; set-up: scale not given: the % may be the effect or the level left; details: route oral
[2] = tested on: Plasmodium berghei; test: Antimalarial activity as reduced parasitaemia against Plasmodium berghei NK65 infected ICR mice (Mus musculus) at 20 mg/kg/day intraperitoneal dose at day 4; format: functional; set-up: scale not given: the % may be the effect or the level left
[3] = tested on: Plasmodium berghei; test: Antimalarial activity as mean survival days against Plasmodium berghei NK65 infected ICR mice (Mus musculus) at 20 mg/kg/day intraperitoneal dose; format: functional
[4] = tested on: Plasmodium berghei; test: Antimalarial activity as mean survival days against Plasmodium berghei NK65 infected ICR mice (Mus musculus) at 100 mg/kg/day peroral dose at day 4; format: functional; details: route oral
[5] = tested on: Mus musculus; test: Toxicity in Plasmodium berghei NK65-infected ICR mice (Mus musculus) assessed as death at 20 mg/kg/day, intraperitoneally administered 24 hrs after infection for 3 consecutive days measured 4 days postinfection; format: organism-based; set-up: route intraperitoneal; details: in vivo, ip, 96 h
[6] = tested on: Plasmodium berghei; test: Antimalarial activity at day 4 against Plasmodium berghei NK65 infected ICR mice (Mus musculus) as reduced parasitaemia at 10 mg/kg/day intraperitoneal dose 24 hrs post infection; format: functional; set-up: scale not given: the % may be the effect or the level left
[7] = tested on: Plasmodium berghei; test: Antimalarial activity as reduced parasitaemia against Plasmodium berghei NK65 infected ICR mice (Mus musculus) at 30 mg/kg/day peroral dose at day 4; format: functional; set-up: scale not given: the % may be the effect or the level left; details: route oral
[8] = tested on: Plasmodium berghei; test: Antimalarial activity as mean survival days against Plasmodium berghei NK65 infected ICR mice (Mus musculus) at 30 mg/kg/day peroral dose; format: functional; details: route oral
[9] = tested on: Plasmodium berghei; test: Antimalarial activity as mean survival days against Plasmodium berghei NK65 infected ICR mice (Mus musculus) at 10 mg/kg/day intraperitoneal dose 24 hrs post infection; format: functional
[10] = Plasma concentration in Wistar rat at 4 mg/kg, iv administered as single dose after 4 hrs by HPLC; format: ADME, organism-based; set-up: dose 4 mg/kg, route intravenous
[11] = Plasma concentration in fasted Wistar rat at 30 mg/kg/day, po after 49 hrs by HPLC; format: ADME, organism-based; set-up: route oral
[12] = tested on: Plasmodium berghei; test: (§1) Antimalarial activity as reduced parasitaemia at day 6 against Plasmodium berghei NK65 infected ICR mice (Mus musculus) at 30 mg/kg/day peroral dose for 3 days; format: functional, organism-based
[13] = tested on: Plasmodium berghei; test: Antimalarial activity recurrence of parasitaemia in Plasmodium berghei NK65 infected ICR mice (Mus musculus) at 4 mg/kg/day intravenous dose for 3 days; format: functional, organism-based
[14] = Selectivity index, ratio of IC50 for rat L6 cells to IC50 for chloroquine and pyrimethamine-resistant Plasmodium falciparum K1; format: toxicity, cell-based; details: read-out: Ratio IC50
[15] = Tmax in Wistar rat at 4 mg/kg, po administered as single dose; format: ADME, organism-based; set-up: dose 4 mg/kg, route oral; details: in vivo
[16] = Plasma concentration in fasted Wistar rat at 30 mg/kg, po after 1 hr by HPLC; format: ADME, organism-based; set-up: dose 30 mg/kg, route oral
[17] = Plasma concentration in fasted Wistar rat at 30 mg/kg, po administered as single dose after 2 hrs by HPLC; format: ADME, organism-based; set-up: dose 30 mg/kg, route oral
[18] = tested on: Plasmodium berghei; test: Antimalarial activity as reduced parasitaemia against Plasmodium berghei NK65 infected ICR mice (Mus musculus) at 30 mg/kg peroral dose at day 4; format: functional; set-up: scale not given: the % may be the effect or the level left; details: route oral
[19] = Apparent volume of distribution in Wistar rat at 4 mg/kg, iv administered as single dose; format: ADME, organism-based; set-up: dose 4 mg/kg, route intravenous; details: in vivo, read-out: Vz
[20] = Clearance in Wistar rat at 4 mg/kg, iv administered as single dose; format: ADME, organism-based; set-up: dose 4 mg/kg, route intravenous; details: in vivo
[21] = Plasma concentration in fasted Wistar rat at 30 mg/kg/day, po after 25 hrs by HPLC; format: ADME, organism-based; set-up: route oral
[22] = Clearance in Wistar rat at 30 mg/kg, po administered as single dose; format: ADME, organism-based; set-up: dose 30 mg/kg, route oral; details: in vivo
[23] = Plasma concentration in Wistar rat at 4 mg/kg, iv administered as single dose after 10 mins by HPLC; format: ADME, organism-based; set-up: dose 4 mg/kg, route intravenous
[24] = tested on: Plasmodium berghei; test: Antimalarial activity as reduced parasitaemia at day 7 against Plasmodium berghei NK65 infected ICR mice (Mus musculus) at 30 mg/kg/day peroral dose for 3 days; format: functional, organism-based
[25] = tested on: Plasmodium berghei; test: Antimalarial activity as reduced parasitaemia against Plasmodium berghei NK65 infected ICR mice (Mus musculus) at 4 mg/kg intravenous dose at day 4; format: functional; set-up: scale not given: the % may be the effect or the level left
[26] = Tmax in Wistar rat at 30 mg/kg, po administered as single dose; format: ADME, organism-based; set-up: dose 30 mg/kg, route oral; details: in vivo
[27] = tested on: Rattus norvegicus; test: Apparent volume of distribution in Wistar rat at 30 mg/kg, po administered as single dose; format: ADME, organism-based; set-up: dose 30 mg/kg, route oral; details: in vivo
[28] = Clearance in Wistar rat at 4 mg/kg, po administered as single dose; format: ADME, organism-based; set-up: dose 4 mg/kg, route oral; details: in vivo
[29] = Oral bioavailability in Wistar rat at 30 mg/kg administered as single dose; format: ADME, organism-based; details: in vivo
[30] = Oral bioavailability in Wistar rat at 4 mg/kg administered as single dose; format: ADME, organism-based; details: in vivo
[31] = Plasma concentration in fasted Wistar rat at 30 mg/kg, po administered as single dose after 1 hr by HPLC; format: ADME, organism-based; set-up: dose 30 mg/kg, route oral
[32] = Half life in Wistar rat at 4 mg/kg, po administered as single dose; format: ADME, organism-based; set-up: dose 4 mg/kg, route oral; details: in vivo
[33] = Half life in Wistar rat at 4 mg/kg, iv administered as single dose; format: ADME, organism-based; set-up: dose 4 mg/kg, route intravenous; details: in vivo
[34] = tested on: Plasmodium falciparum; test: Antimalarial activity against chloroquine and pyrimethamine-resistant Plasmodium falciparum K1; format: functional, organism-based
[35] = Half life in Wistar rat at 30 mg/kg, po administered as single dose; format: ADME, organism-based; set-up: dose 30 mg/kg, route oral; details: in vivo
[36] = Plasma concentration in fasted Wistar rat at 4 mg/kg, po administered as single dose after 2 hrs by HPLC; format: ADME, organism-based; set-up: dose 4 mg/kg, route oral
[37] = tested on: Plasmodium berghei; test: as §1; format: functional; set-up: scale not given: the % may be the effect or the level left; details: route oral
[38] = tested on: Rattus norvegicus; test: Apparent volume of distribution in Wistar rat at 4 mg/kg, po administered as single dose; format: ADME, organism-based; set-up: dose 4 mg/kg, route oral; details: in vivo
[39] = tested on: Plasmodium berghei; test: Antimalarial activity as recurrence of parasitaemia at day 5 in Plasmodium berghei NK65 infected ICR mice (Mus musculus) at 4 mg/kg/day peroral dose for 3 days; format: functional, organism-based
[40] = Plasma concentration in fasted Wistar rat at 4 mg/kg, po administered as single dose after 1 hr by HPLC; format: ADME, organism-based; set-up: dose 4 mg/kg, route oral
[41] = tested on: Plasmodium berghei; test: Antimalarial activity as reduced parasitaemia against Plasmodium berghei NK65 infected ICR mice (Mus musculus) at 4 mg/kg peroral dose at day 4; format: functional; set-up: scale not given: the % may be the effect or the level left; details: route oral

CN(C)c1ccc2nc3ccc(N4CCCC4)cc3[o+]c2c1.[Cl-]
Activity [1]: 90.3%
Activity [2]: 95.7%
MSD [3]: 7.8 days
MSD [4]: 10 days

CCCCCCN(CCCCCC)c1ccc2nc3ccc(N4CCCCC4)cc3[o+]c2c1.[Cl-]
Activity [5]: Toxic

CCCCCN(CCCCC)c1ccc2nc3ccc(N4CCCCC4)cc3[o+]c2c1.[Cl-]
Activity [5]: Toxic

CCCN(CCC)c1ccc2nc3ccc(N4CCSCC4)cc3[o+]c2c1.[Cl-]
Activity [1]: 68.9%
Activity [2]: 96.5%
MSD [3]: 12.5 days
MSD [4]: 7 days

CCCN(CCC)c1ccc2nc3ccc(N4CCCC4)cc3[o+]c2c1.[Cl-]
Activity [1]: 99.6%
Activity [2]: 95.2%
MSD [3]: 14.8 days
MSD [4]: 10 days

CCN(CC)CCCC(C)Nc1ccnc2cc(Cl)ccc12 (configuration not stated) [CHLOROQUINE]
Activity [6]: 90.6%
Activity [7]: 98.4%
MSD [8]: 9.6 days
MSD [9]: 22.7 days

CCCN(CCC)c1ccc2nc3ccc(N4CCOCC4)cc3[o+]c2c1.[Cl-]
Activity [1]: 99.5%
Activity [2]: 95.7%
MSD [3]: 18 days
MSD [4]: 10 days

CCN(CC)c1ccc2nc3ccc(N4CCCCC4)cc3[o+]c2c1.[Cl-]
concentration at 4 h [10]: 96.6 ng/mL
Activity [1]: 97.8%
concentration at 49 h [11]: 583 ng/mL
Activity [12]: Active
Activity [13]: inactive
selectivity ratio [14]: 2390
Tmax [15]: 0.99 h
concentration at 1 h [16]: 299 ng/mL
concentration at 2 h [17]: 158 ng/mL
Activity [18]: 96.2%
Vd [19]: 35.3 L/kg
clearance [20]: 44.5 mL/min/kg
concentration at 25 h [21]: 420 ng/mL
CL/F [22]: 43.3 mL/min/kg
concentration at 10 min [23]: 468 ng/mL
Activity [24]: inactive
Activity [25]: 85.9%
Tmax [26]: 0.98 h
Vz [27]: 38.5 L/kg
CL/F [28]: 43.3 mL/min/kg
bioavailability [29]: 60.7%
Activity [2]: 95.9%
bioavailability [30]: 89.6%
concentration at 1 h [31]: 658 ng/mL
half-life [32]: 9.84 h
half-life [33]: 8.82 h
MSD [3]: 23.3 days
IC50 [34]: 2.69 nM
half-life [35]: 10.3 h
concentration at 2 h [36]: 158 ng/mL
MSD [4]: 12.7 days
Activity [37]: 90%
Vz [38]: 36.9 L/kg
Activity [39]: inactive
concentration at 1 h [40]: 658 ng/mL
Activity [41]: 76%

CCN(CC)c1ccc2nc3ccc(N4CCOCC4)cc3[o+]c2c1.[Cl-]
Activity [1]: 96.3%
Activity [2]: 90%
MSD [3]: 12.3 days
MSD [4]: 13 days

CN(C)c1ccc2nc3ccc(N4CCSCC4)cc3[o+]c2c1.[Cl-]
Activity [1]: 84.9%
Activity [2]: 94.5%
MSD [3]: 9.8 days
MSD [4]: 11.3 days

CCCN(CCC)c1ccc2nc3ccc(N4CCCCC4)cc3[o+]c2c1.[Cl-]
Activity [1]: 97.6%
Activity [2]: 93.2%
MSD [3]: 12.3 days
MSD [4]: 10.3 days

CCCCN(CCCC)c1ccc2nc3ccc(N4CCCCC4)cc3[o+]c2c1.[Cl-]
Activity [5]: Toxic

CCN(CC)c1ccc2nc3ccc(N4CCSCC4)cc3[o+]c2c1.[Cl-]
Activity [1]: 66.3%
Activity [2]: 99.2%
MSD [3]: 11.5 days
MSD [4]: 6.3 days

CN(C)c1ccc2nc3ccc(N4CCCCC4)cc3[o+]c2c1.[Cl-]
Activity [1]: 97.8%
Activity [2]: 96.4%
MSD [3]: 15.5 days
MSD [4]: 7.6 days

[Cl-].c1cc2nc3ccc(N4CCCCC4)cc3[o+]c2cc1N1CCCCC1
Activity [1]: 99.8%
Activity [2]: 97.2%
MSD [3]: 16.8 days
MSD [4]: 11.3 days

[Cl-].c1cc2nc3ccc(N4CCCC4)cc3[o+]c2cc1N1CCCC1
Activity [1]: 95.3%
Activity [2]: 95.4%
MSD [3]: 8.3 days
MSD [4]: 8.3 days
